Values of other authors in patent publication US7148350B2, “Compounds in the form of homodimeric or heterodimeric pro-drugs; process for obtaining these pro-drugs and their acceptable pharmaceutical salts and use of compounds in the treatment of phosphodiesterases-mediated diseases or dysfunction” (Cristalia Prod.Qui.Farm. LTDA, priority 2000, dated 2006).

Assays:
[1] = dimer versus isolated monomers
[2] = after administration; limited by pre-systemic metabolism
[3] = test system: granulocyte progenitor cells and macrophages; details: dimer versus monomers
erectile dysfunction = details: oral administration; patients with organic erectile dysfunction

## Cc1cn([C@H]2C[C@H](N=[N+]=[N-])[C@@H](CO)O2)c(=O)[nH]c1=O [AZT, zidovudine]
[1]
  EC50: 3.9 nM
After oral administration of AZT-P-DDI
  oral bioavailability: 64.7–67.3%

## CCCc1nn(C)c2c(=O)[nH]c(-c3cc(S(=O)(=O)N4CCN(C)CC4)ccc3OCC)nc12 [sildenafil]
[2]
  absolute bioavailability: 40%

## Cc1cn([C@H]2C[C@H](N=[N+]=[N-])[C@@H](COP(=O)(O)OC[C@@H]3CC[C@H](n4cnc5c(=O)[nH]cnc54)O3)O2)c(=O)[nH]c1=O [AZT-P-DDI]
[3]
  less toxicity (fold): 10 times
[1]
  EC50: 0.14 nM
Intravenous administration, 50 or 100 mg
  time after which plasmatic concentration is no longer detected: 30 min
Oral administration
  detection of the dimer after oral administration: not detected

## O=c1[nH]cnc2c1ncn2[C@H]1CC[C@@H](CO)O1 [DDI, didanosine]
[1]
  EC50: 460 nM

## COC(=O)[C@@H]1[C@H]2C[C@H]3c4[nH]c5ccccc5c4CCN3C[C@@H]2CC[C@@H]1O [Yohimbine]
Erectile dysfunction
  effectiveness: low
